These results are taken from patent publication US8829016B2, “Triazole compounds as potential anti-inflammatory agents” (King Saud University, priority 2011, dated 2014).

Data set [1] has as its system carrageenan-induced rat paw edema. Nature of the data set: In vivo carrageenan induced rat paw edema assay. More on the design: species or system rat (male Sprague-Dawley). Conditions: compound intravenously in DMSO one hour before carrageenan, vs vehicle control = 0%. As to the method:
(§1) Anti-inflammatory activity was determined by the carrageenan-induced rat paw edema method described by Winter et al., Proc. Soc. Exp. Biol. Med. 1962, 111, 544, using male Sprague-Dawley rats weighing 150 to 200 g (6-8 weeks old). The protocol for the animal experiments performed was approved by the Research Ethics Committee and Animal Care and Use Committee, Govt. of Saudi Arabia. Compounds were administered intravenously in dimethyl sulfoxide solution. Paw edema was induced by intradermal injection of 50 μ. of 1% λ-carrageenan (Sigma, USA) into the subplantar region of the right hind paw, after one hour of compound administration. […] The control group received only the vehicle. Increase in paw volume was compared with that in the control group and percent inhibition was calculated taking the values in the control group as 0% inhibition.
In Vivo Carrageenan Induced Rat Paw Edema Assay
as §1, with “(Winter” for “Winter”, “al.” for “al.,”, “544). Male” for “544, using male”, “old) were used in groups of six animals per group for the experiments. The animals were housed in a room with temperature of 22±2° C. under a 12 h light/dark cycle. They were allowed free access to food and water ad libitum.” for “old).”, “μl” for “μ.”, “X-carrageenan” for “λ-carrageenan”

The target in data set [2] is T1, ovine COX-2 (Ovis aries, UniProt P79208).
T1 construct: purchased Cayman Chemicals, USA
T1 sequence (P79208 17-603): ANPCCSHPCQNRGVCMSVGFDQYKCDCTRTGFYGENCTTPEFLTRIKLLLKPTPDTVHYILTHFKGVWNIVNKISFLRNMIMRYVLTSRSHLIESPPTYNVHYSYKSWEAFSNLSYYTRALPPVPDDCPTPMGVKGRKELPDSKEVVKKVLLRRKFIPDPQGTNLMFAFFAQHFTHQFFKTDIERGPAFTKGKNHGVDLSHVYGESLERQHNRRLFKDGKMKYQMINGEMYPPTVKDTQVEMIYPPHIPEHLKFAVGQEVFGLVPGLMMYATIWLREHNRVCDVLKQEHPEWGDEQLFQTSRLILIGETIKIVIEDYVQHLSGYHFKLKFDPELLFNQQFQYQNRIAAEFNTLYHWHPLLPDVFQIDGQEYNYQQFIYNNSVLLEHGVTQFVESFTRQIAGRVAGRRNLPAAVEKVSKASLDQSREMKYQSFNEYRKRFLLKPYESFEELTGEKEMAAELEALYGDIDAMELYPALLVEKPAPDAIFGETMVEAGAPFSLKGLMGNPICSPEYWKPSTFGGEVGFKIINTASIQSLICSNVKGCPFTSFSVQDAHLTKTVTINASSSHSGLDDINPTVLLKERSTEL
Nature of the data set: In vitro COX inhibition assay, colorimetric COX (ovine) inhibitor screening kit, COX-2. Conditions: for IC50: ovine COX-2, colorimetric kit; for Selectivity index (COX-1/COX-2): ratio of IC50 COX-1 / IC50 COX-2. It is filed as biochemical. The procedure:
(§2) Inhibition of the enzymes was determined with the colorimetric COX (ovine) inhibitor screening assay.
(§3) In Vitro COX Inhibition Assay
(§4) The final compounds were evaluated for their ability to inhibit ovine COX-1 and COX-2 enzymes [50% percent inhibition is expressed in molar concentration […]] […] Inhibition of the enzymes was determined with the colorimetric COX (ovine) inhibitor screening assay kit (Cayman Chemicals, USA) using ELISA reader.

The target in data set [3] is T2, ovine COX-1 (Ovis aries, UniProt P05979).
T2 construct: purchased Cayman Chemicals, USA
T2 sequence (P05979 25-600): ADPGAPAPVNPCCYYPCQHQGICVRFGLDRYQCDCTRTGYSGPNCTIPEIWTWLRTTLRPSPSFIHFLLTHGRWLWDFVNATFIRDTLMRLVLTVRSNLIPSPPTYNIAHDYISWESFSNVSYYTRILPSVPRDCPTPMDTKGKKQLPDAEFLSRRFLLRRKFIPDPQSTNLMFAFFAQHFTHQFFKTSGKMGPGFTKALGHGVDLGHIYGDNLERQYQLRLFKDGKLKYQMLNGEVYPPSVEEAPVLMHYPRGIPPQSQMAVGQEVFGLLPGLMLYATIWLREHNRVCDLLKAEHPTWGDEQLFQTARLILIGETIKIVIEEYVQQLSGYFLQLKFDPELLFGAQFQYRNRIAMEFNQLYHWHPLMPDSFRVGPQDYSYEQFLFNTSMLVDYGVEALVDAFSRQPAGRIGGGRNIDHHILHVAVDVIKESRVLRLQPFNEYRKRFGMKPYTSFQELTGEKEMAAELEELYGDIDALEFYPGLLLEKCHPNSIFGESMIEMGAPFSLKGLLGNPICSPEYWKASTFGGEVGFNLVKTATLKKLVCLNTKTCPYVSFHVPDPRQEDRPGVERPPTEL
Nature of the data set: In vitro COX inhibition assay, colorimetric COX (ovine) inhibitor screening kit, COX-1. It counts as biochemical. Particulars: ovine COX-1, colorimetric kit. The procedure:
as §2, §3, §4

For `Cc1ccc(-c2cc(C(F)(F)F)nn2-c2ccc(S(N)(=O)=O)cc2)cc1` [Celecoxib, reference compound], in data set [1], the “AI activity % inhibition at 1 hr (carrageenan paw edema)” value (from here on “AI activity % inhibition at 1 hr”) was determined as 50 ± 2.1% and the “AI activity % inhibition at 2 hr (carrageenan paw edema)” value (“AI activity % inhibition at 2 hr” below) was determined as 71.5 ± 3.7%.

In general, melting point refers to the temperature of the solid-liquid transition. `C#CCSC1NN=C(c2ccncc2)N1c1ccccc1` (stereo not drawn) [Compound 3, 4-Phenyl-3-(prop-2-ynylthio)-5-pyridine-4-yl-2,4-dihydro-3H-1,2,4-triazole] returned a melting point of 151 to 152 °C.

One may read the IC50 as the concentration at which inhibition is half-maximal. The low end stands for greater potency, the high end for weaker potency. As to `C#CCSc1nnc(-c2ccncc2)n1-c1ccccc1` [Compound 3, 4-Phenyl-3-(prop-2-ynylthio)-5-pyridine-4-yl-2,4-dihydro-3H-1,2,4-triazole], in data set [2], 5.3 nM corresponded to half-maximal inhibition (IC50) and the “Selectivity index (COX-1/COX-2)” value is reported as 1.42. Besides, 7.5 nM corresponded to half-maximal inhibition in data set [3] (IC50). Also, in data set [1], the “AI activity % inhibition at 1 hr” value amounted to 10 ± 5.4% and the “AI activity % inhibition at 2 hr” value is recorded as 12 ± 4.9%.

`CCCC(C)SC1NN=C(c2ccncc2)N1c1ccccc1` (stereo not drawn) [Compound 4, 3-[(Pent-2-yl)thio]-4-phenyl-5-pyridine-4-yl-2,4-dihydro-3H-1,2,4-triazole] registered a melting point of 96 to 97 °C.

For the molecule `CCCC(C)Sc1nnc(-c2ccncc2)n1-c1ccccc1` (stereo not drawn) [Compound 4, 3-[(Pent-2-yl)thio]-4-phenyl-5-pyridine-4-yl-2,4-dihydro-3H-1,2,4-triazole], in data set [2], the IC50 is 1.4 nM and the “Selectivity index (COX-1/COX-2)” value was 2.64. The midpoint of inhibition in data set [3], the IC50, lay at 3.7 nM. Further, in data set [1], the “AI activity % inhibition at 1 hr” value stood at 36 ± 2.1% and the “AI activity % inhibition at 2 hr” value is listed as 50 ± 2.5%.

`C=CCCCSC1NN=C(c2ccncc2)N1c1ccccc1` (stereo not drawn) [Compound 5] had a melting point of 132 to 133 °C.

Regarding `C=CCCCSc1nnc(-c2ccncc2)n1-c1ccccc1` [Compound 5], in data set [2], 2.6 nM corresponded to half-maximal inhibition (IC50) and the “Selectivity index (COX-1/COX-2)” value is 1.69. In addition, the 50% inhibitory concentration (IC50) in data set [3] amounted to 4.4 nM. For the same molecule, in data set [1], the “AI activity % inhibition at 1 hr” value is given as 9 ± 1.3% and the “AI activity % inhibition at 2 hr” value was determined as 38 ± 1.8%.

Molecule `CCOC(=O)n1nc(-c2ccncc2)n(-c2ccccc2)c1=S` [Compound 6, Ethyl[4-phenyl-5-pyridine-4-yl-3-thioxo-2,4-dihydro-3H-1,2,4-triazole-2-yl]carboxylate] gave a melting point of 231 to 232 °C. Further, in data set [2], the IC50 came to 7.8 nM and the “Selectivity index (COX-1/COX-2)” value worked out at 1.18. For the same molecule, in data set [3], the IC50 is 9.2 nM. For the same molecule, in data set [1], the “AI activity % inhibition at 1 hr” value is on record as 0.0% and the “AI activity % inhibition at 2 hr” value turned out to be 5 ± 1.8%.

`OCn1nc(-c2ccncc2)n(-c2ccccc2)c1=S` [Compound 7, 2-Hydroxymethyl-4-phenyl-5-pyridine-4-yl-2,4-dihydro-3H-1,2,4-triazole-3-thione]: the melting point is 277 to 278 °C. In addition, in data set [2], the IC50 stood at 0.8 nM and the “Selectivity index (COX-1/COX-2)” value is 4.38. The molecule also registered an IC50 in data set [3] of 3.5 nM. In addition, in data set [1], the “AI activity % inhibition at 1 hr” value turned out to be 25 ± 1.8% and the “AI activity % inhibition at 2 hr” value was determined as 66 ± 2.6%.

Regarding `CN(C)Cn1nc(-c2ccncc2)n(-c2ccccc2)c1=S` [Compound 8, 2-Dimethylaminomethyl-4-phenyl-5-pyridine-4-yl-2,4-dihydro-3H-1,2,4-triazole-3-thione], the melting point fell in the range of 173 to 174 °C. Further, in data set [2], the IC50 turned out to be 0.9 nM and the “Selectivity index (COX-1/COX-2)” value is recorded as 3.44. In data set [3], this molecule had an IC50 of 3.1 nM. Moreover, in data set [1], the “AI activity % inhibition at 1 hr” value was determined as 51 ± 1.5% and the “AI activity % inhibition at 2 hr” value worked out at 76 ± 2.8%.

Turning to `CCN(CC)Cn1nc(-c2ccncc2)n(-c2ccccc2)c1=S` [Compound 9, 2-Diethylaminomethyl-4-phenyl-5-pyridine-4-yl-2,4-dihydro-3H-1,2,4-triazole-3-thione], the melting point lay in the range of 216 to 217 °C. Besides, in data set [2], it took 1.1 nM to reach half-maximal inhibition (IC50) and the “Selectivity index (COX-1/COX-2)” value worked out at 3.46. Half-maximal inhibition in data set [3] (IC50) required 3.8 nM. Also, in data set [1], the “AI activity % inhibition at 1 hr” value stood at 45 ± 1.1% and the “AI activity % inhibition at 2 hr” value is given as 66 ± 1.2%.

For the molecule `S=c1n(CN2CCCC2)nc(-c2ccncc2)n1-c1ccccc1` [Compound 10, 4-Phenyl-5-pyridine-4-yl-2-pyrrolidinylmethyl-2,4-dihydro-3H-1,2,4-triazole-3-thione], in data set [2], the IC50 amounted to 0.9 nM and the “Selectivity index (COX-1/COX-2)” value is on record as 4.11. In data set [3], this molecule came in with an IC50 of 3.7 nM. Also, in data set [1], the “AI activity % inhibition at 1 hr” value was 62 ± 3.4% and the “AI activity % inhibition at 2 hr” value was 66 ± 1.5%.

Regarding `CN(CCO)Cn1nc(-c2ccncc2)n(-c2ccccc2)c1=S` [Compound 11, N-Methyl-N-[(4-phenyl-5-pyridine-4-yl-3-thioxo-2,4-dihydro-3H-1,2,4-triazol-2-y)methyl]-2-aminoethanol], the melting point fell in the range of 173 to 174 °C. In data set [2], the IC50 came out at 2.1 nM and the “Selectivity index (COX-1/COX-2)” value came to 2.14. In data set [3], this molecule had an IC50 of 4.5 nM. Further, in data set [1], the “AI activity % inhibition at 1 hr” value is reported as “Zero” and the “AI activity % inhibition at 2 hr” value stood at 16 ± 5.9%.

Turning to `S=c1n(CNc2ccc(Br)cc2)nc(-c2ccncc2)n1-c1ccccc1` [Compound 12, 2-[(4-Bromophenylamino)methyl]-4-phenyl-5-pyridine-4-yl-2,4-dihydro-3H-1,2,4-triazole-3-thione], the melting point lay within 208 to 209 °C. Besides, in data set [2], 3.9 nM corresponded to half-maximal inhibition (IC50) and the “Selectivity index (COX-1/COX-2)” value worked out at 1.64. In data set [3], the IC50 was determined as 6.4 nM. In addition, in data set [1], the “AI activity % inhibition at 1 hr” value is on record as 12.5 ± 1.6% and the “AI activity % inhibition at 2 hr” value is listed as 29 ± 3.8%.

Turning to `S=c1n(CNCc2ccc(Cl)cc2)nc(-c2ccncc2)n1-c1ccccc1` [Compound 13, 2-[(4-Chlorobenzylamino)methyl]-4-phenyl-5-pyridine-4-yl-2,4-dihydro-3H-1,2,4-triazole-3-thione], in data set [2], it took 6.8 nM to reach half-maximal inhibition (IC50) and the “Selectivity index (COX-1/COX-2)” value came to 1.38. Also, the half-maximal inhibitory concentration (IC50) in data set [3] amounted to 8.7 nM. Also, in data set [1], the “AI activity % inhibition at 1 hr” value came out at 16 ± 5.7% and the “AI activity % inhibition at 2 hr” value was determined as 19 ± 6.3%.
